Reference: patent publication EP0384661A1, “Antialgal compositions comprising diphenylethers” (ROHM AND HAAS COMPANY, priority 1989, dated 1990)
≈ marks a conversion by molar mass, not a printed value. Counter-ions that a name gives are not always drawn.

Assays:
[1] = test system: 10 differents types of algae; settings: all levels tested; 10 types of algae; cited from earlier work
[2] = test system: Mixed Cooling Tower Culture; assay: MIC microtiter plate assay; type: cell-based, mixed culture of algae; settings: growth/no-growth after 14 or 21 days, 25°C
Method: (§1) Efficacy studies were conducted on a variety of microorganisms with oxyfluorfen. Minimum Inhibitory Concentration (MIC) studies were conducted using microtiter plate assays. In this method, a wide range of concentrations was tested by preparing two-fold serial dilutions of the compound in 96-well plastic microtiter plates. All liquid media transfers were performed with calibrated single or multichannel digital pipetters. Stock solutions of compounds were prepared in appropriate solvents and dispensed to the growth medium. All subsequent dilutions in plates were made using the desired growth medium. The total volume of liquid in each well was 100 ul. The pure cultures used in this study were obtained from the Culture Collection of Algae at the University of Texas at Austin (UTEX). The mixed culture of algae was obtained from a cooling tower biofilm and maintained in liquid medium; microorganisms used as inocula were cultured in shaken liquid culture (50 ml of Bristol's medium, pH 7.0, 25°C); Journal of Phycology, 23s: 1-47, 1987) for one week or as needed to attain a desired cell mass. The cultures were then inoculated into the microtiter plates using a 96-prong multiple inoculator (5 µl inoculum); each well received a standard suspension of biomass (5% inoculum). Plates were incubated at 25°C under constant illumination (500 ft candles). The extent of growth was determined under low magnification with the aid of a microtiter plate reader. The growth in each cell was monitored periodically and growth/no-growth was recorded after 14 or 21 days. […] Following the evaluation procedure of Example 3, compounds according to the following structural formula, with X and Y substituents according to Table 4A, were evaluated with the results shown in Table 4B. [drawing 4]

[3] = test system: Anabaena flos-aquae; assay: MIC microtiter plate assay; type: cell-based; settings: Dolichospermum flos-aquae; growth/no-growth after 14 or 21 days, 25°C
Method: as §1

[4] = test system: mixed cooling tower algae; assay: Paint algicide test (latex paint on tongue depressors); type: cell-based; design: key to 7 Days Algal Growth / 10 Days Algal Growth / 14 Days Algal Growth: 0 = No Algal Growth; 5 = Moderate Algal Growth; 10 = Heavy Algal Growth
Method: Solutions of oxyfluorfen were prepared as follows in 1-ounce (28.3g) glass vials. Oxyfluorfen concentrate (0.17 g) was added to 19.83 g latex paint formulation (described below) to give 2-lb oxyfluorfen/100 gal. (2 kg/833 l) paint solution; in a similar manner, 0.08 g oxyfluorfen concentrate was added to 19.92 g latex paint formulation to give 1-lb/100-gal (1 kg/833 l) solution. Oxyfluorfen concentrate (1.0 g) was added to 19.0 g mixture of 2 parts xylene/1 part cyclohexanone; 0.17 g of the resultant solution was added to 19.83 g latex paint formulation to give 0.1-lb/100-gal oxyfluorfen solution; in a similar manner, 0.016 g of xylene/cyclohexanone solution was added to 19.984 g latex paint formulation to give 0.01-lb/100-gal solution.
The solutions were stirred manually with Teflon spatulas and each was applied to two tongue depressors using #7 paint brushes. Two control tongue depressors were similarly prepared except without oxyfluorfen in the latex paint formulation. The tongue depressors were allowed to dry for one week and then inoculated with four 50 ul drops of mixed cooling tower algae (obtained from surface scrapings of industrial cooling towers and maintained in a modified Allen's media formulation, described in EXAMPLE 1).
The tongue depressors were placed on plastic stages within large petri dishes and the area around the stages was filled with deionized water. The petri dishes were covered and placed in a Precision (Model 816) low temperature (25C) illuminated incubator for one week; at this point the tongue depressors were re-inoculated with one ml of the mixed cooling tower algae and returned to the incubator. The tongue depressors where then checked daily for algal growth (visual); results are found in Part C.
Oxyfluorfen was added as a 24% emulsifiable concentrate in mixed organic solvents. The following formulation is a typical paint blend for testing of stabilization against algal activity. Texanol¿ is trimethyl-1,3-pentanediol monoisobutyrate supplied by Eastman Chemical; Rhoplex AC-64 is a commercially available latex of a copolymer of butyl acrylate and methyl methacrylate. This paint formulation has a pH of 9.4 and an initial viscosity of […] (Krebs units).

[5] = test system: Chlorella pyrenoidosa; assay: MIC microtiter plate assay; type: cell-based; settings: growth/no-growth after 14 or 21 days, 25°C
Method: (§2) Efficacy studies were conducted on a variety of microorganisms with oxyfluorfen. Minimum Inhibitory Concentration (MIC) studies were conducted using microtiter plate assays. In this method, a wide range of concentrations was tested by preparing two-fold serial dilutions of the compound in 96-well plastic microtiter plates. All liquid media transfers were performed with calibrated single or multichannel digital pipetters. Stock solutions of compounds were prepared in appropriate solvents and dispensed to the growth medium. All subsequent dilutions in plates were made using the desired growth medium. The total volume of liquid in each well was 100 ul. The pure cultures used in this study were obtained from the Culture Collection of Algae at the University of Texas at Austin (UTEX). The mixed culture of algae was obtained from a cooling tower biofilm and maintained in liquid medium; microorganisms used as inocula were cultured in shaken liquid culture (50 ml of Bristol's medium, pH 7.0, 25°C); Journal of Phycology, 23s: 1-47, 1987) for one week or as needed to attain a desired cell mass. The cultures were then inoculated into the microtiter plates using a 96-prong multiple inoculator (5 µl inoculum); each well received a standard suspension of biomass (5% inoculum). Plates were incubated at 25°C under constant illumination (500 ft candles). The extent of growth was determined under low magnification with the aid of a microtiter plate reader. The growth in each cell was monitored periodically and growth/no-growth was recorded after 14 or 21 days.

[6] = test system: Nostoc commune; assay: MIC microtiter plate assay; type: cell-based; settings: growth/no-growth after 14 or 21 days, 25°C
Method: as §2

[7] = test system: Phormidium luridum var. olivace; assay: MIC microtiter plate assay; type: cell-based; settings: Drouetiella lurida; growth/no-growth after 14 or 21 days, 25°C
Method: as §2

[8] = test system: Synechococcus leopooliensis; assay: MIC microtiter plate assay; type: cell-based; settings: growth/no-growth after 14 or 21 days, 25°C
Method: as §2

[9] = test system: Scendesmus quadricaudra; assay: MIC microtiter plate assay; type: cell-based; settings: growth/no-growth after 14 or 21 days, 25°C
Method: as §2

[10] = test system: Selanastrum capricornutum; assay: MIC microtiter plate assay; type: cell-based; settings: growth/no-growth after 14 or 21 days, 25°C
Method: as §2

[11] = test system: Clorococcum oleofaciens; assay: MIC microtiter plate assay; type: cell-based; settings: growth/no-growth after 14 or 21 days, 25°C
Method: as §2

[12] = test system: mixed cooling tower culture; assay: Simulated cooling tower water jar test, visual growth rating; type: cell-based; design: key to Visual Rating (7 Day Incubation): 0 = no growth; 1 = slight growth; 3 = moderate growth; 5 = abundant growth; settings: for Visual Rating (7 Day Incubation): synthetic cooling tower water pH 8.5
Method: A study was conducted with simulated cooling tower water to determine the effect of oxyfluorfen as an antialgal compound under simulated cooling tower conditions. Synthetic cooling tower water was made up with the following final concentrations (pH 8.5): Approximately 500 ml of the above solution was added to half-gallon jars and each jar was charged with given levels of oxyfluorfen (supplied as an emulsifiable concentrate); one jar contained no antialgal compound (control). Another set of jars was prepared with known levels of Isothiazolone A, a known antialgal compound for comparison purposes. Each jar was inoculated with 5 ml of a mixed cooling tower culture which was obtained from surface scrapings of industrial cooling towers; the mixed populations were maintained at room temperature in modified Allen's Media Formulation B described below in Part B. Each jar was inoculated two times per week to challenge the system. Jars were incubated under a 12 hour illumination cycle at room temperature (25°C) and were mixed manually (by swirling) three times per day. Visual observations were recorded daily using the rating scale described in Part C.

[13] = test system: mixed population of algae and blue-green bacteria; assay: Model cooling tower biofilm efficacy (chlorophyll a); type: cell-based; settings: one-per-week slug doses, biofilm harvested after four weeks
Method: Oxyfluorfen was tested as a water treatment antialgal compound in model cooling towers which simulate pertinent process variables of industrial cooling towers. Compounds were dosed on a regular basis and the efficacy of the treatments was determined by measuring a parameter of algal or cyanobacterial biomass; specific operating parameters are described below.
The basic design consisted of an acrylic plastic tower placed within a 17-liter polycarbonate basin. Each model contained a temperature control system, acid (H₂SO₄) or base (KOH) feed for pH control, air flow regulators, water recirculation system, and a makeup water supply. Two sets of five towers were placed in vented enclosures.
The basin contained an overflow port positioned to provide a constant 8-liter working volume in the system. […]
Illumination was provided by cool white and grow-lux fluorescent lights operated on a 19 hours per day cycle. The heating system for each unit consisted of an immersion heating element, temperature controller, two thermistors, and a direct readout thermometer. […]
The model cooling towers were designed and operated to maintain a constant half-life in each unit. […] The rate of removal of a given compound from the system was thereby determined by the concentration of the material in the bulkwater and the rate of blowdown from the tower. […]

[14] = 10 ppm (0.01 lb/100-gal) in latex paint
[15] = 100 ppm (0.10 lb/100-gal) in latex paint
[16] = 1000 ppm (1.0 lb/100-gal) in latex paint
[17] = 2000 ppm (2.0 lb/100-gal) in latex paint

Question: Which effectiveness on algae [1] does the source give for `O=C(O)c1cc(Oc2ccc(C(F)(F)F)cc2Cl)ccc1[N+](=O)[O-]` [acifluorfen, 2-chloro-4-trifluoromethylphenyl-3′-carboxy-4′-nitrophenylether, sodium salt] here?
Answer: ineffective at all levels tested

Question: Which MIC [2] does the source give for `CC(=O)Oc1cccc(Oc2ccc(C(F)(F)F)cc2Cl)c1` [4B comparative] here?
Answer: 8 µg/mL (≈ 24.2 µM)

Question: What about the MIC [3] of the same compound?
Answer: 16 µg/mL (≈ 48.4 µM)

Question: Which “7 Days Algal Growth” value [4, 14] does the source give for `CCOc1cc(Oc2ccc(C(F)(F)F)cc2Cl)ccc1[N+](=O)[O-]` [Oxyfluorfen, oxyfluorfen] here?
Answer: 0

Question: What about the “10 Days Algal Growth” value [4, 14] of the same compound?
Answer: 2

Question: And the “14 Days Algal Growth” value [4, 14]?
Answer: 3

Question: And the “7 Days Algal Growth” value [4, 15]?
Answer: 0

Question: And the “10 Days Algal Growth” value [4, 15]?
Answer: 1

Question: And the “14 Days Algal Growth” value [4, 15]?
Answer: 1

Question: And the “7 Days Algal Growth” value [4, 16]?
Answer: 0

Question: And the “10 Days Algal Growth” value [4, 16]?
Answer: 0

Question: And the “14 Days Algal Growth” value [4, 16]?
Answer: 0

Question: What about the “7 Days Algal Growth” value [4, 17] of the same compound?
Answer: 0

Question: And the “10 Days Algal Growth” value [4, 17]?
Answer: 0

Question: And the “14 Days Algal Growth” value [4, 17]?
Answer: 0

Question: What about the “levels that significantly reduced the rate of algal growth” value ([4]; for up to 14 days, in latex paint) of the same compound?
Answer: ≤ 10 ppm

Question: What about the “levels that totally inhibited algal growth” value ([4]; in latex paint) of the same compound?
Answer: above 100 ppm

Question: What about the MIC [5] of the same compound?
Answer: 0.125 ppm

Question: And the MIC [6]?
Answer: > 500 µg/mL

Question: What about the MIC [7] of the same compound?
Answer: > 500 µg/mL

Question: What about the MIC [8] of the same compound?
Answer: > 500 µg/mL

Question: And the MIC [9]?
Answer: < 0.002 µg/mL

Question: And the MIC [10]?
Answer: 0.008 µg/mL (≈ 0.0221 µM)

Question: What about the MIC [11] of the same compound?
Answer: > 0.125 µg/mL

Question: And the “Visual Rating (7 Day Incubation)” value ([12]; 0.005 ppm)?
Answer: 0

Question: And the “Visual Rating (7 Day Incubation)” value ([12]; 0.010 ppm)?
Answer: 0

Question: What about the “Visual Rating (7 Day Incubation)” value ([12]; 0.025 ppm) of the same compound?
Answer: 0

Question: And the “Visual Rating (7 Day Incubation)” value ([12]; 0.050 ppm)?
Answer: 0

Question: And the “Visual Rating (7 Day Incubation)” value ([12]; 0.100 ppm)?
Answer: 0

Question: And the “Visual Rating (7 Day Incubation)” value ([12]; 0.250 ppm)?
Answer: 0

Question: And the “Visual Rating (7 Day Incubation)” value ([12]; 0.500 ppm)?
Answer: 0

Question: What about the “levels effective for controlling cooling tower algae” value ([12]; simulated water chemistry conditions) of the same compound?
Answer: ≤ 5 ppb

Question: And the “Chlorophyll a in Biofilm” value ([13]; 0.05 ppm)?
Answer: 3.27 ug/cm2

Question: And the activity at 0.05 ppm ([13]; 672 h, read-out: Chlorophyll a in Biofilm % of control)?
Answer: 24%

Question: What about the MIC [2] of the same compound?
Answer: < 0.004 µg/mL

Question: What about the MIC [3] of the same compound?
Answer: > 500 µg/mL

Question: With `CC(=O)Oc1cc(Oc2ccc(C(F)(F)F)cc2Cl)ccc1[N+](=O)[O-]` [4C comparative] as the compound, how does the MIC [2] read?
Answer: 0.25 µg/mL (≈ 0.665 µM)

Question: What about the MIC [3] of the same compound?
Answer: 12.5 µg/mL (≈ 33.3 µM)

Question: Which MIC [2] does the source give for `O=[N+]([O-])c1ccc(Oc2ccc(C(F)(F)F)cc2Cl)cc1O` [4D comparative] here?
Answer: 0.06 µg/mL (≈ 0.18 µM)

Question: And the MIC [3]?
Answer: 12.5 µg/mL (≈ 37.5 µM)

Question: Which MIC [2] does the source give for `CCOC(=O)C(C)Oc1cc(Oc2ccc(C(F)(F)F)cc2Cl)ccc1[N+](=O)[O-]` (stereo not shown) [Compound 4G] here?
Answer: 0.25 µg/mL (≈ 0.576 µM)

Question: For `CCOC(=O)COC(=O)c1cc(Oc2ccc(C(F)(F)F)cc2Cl)ccc1[N+](=O)[O-]` [4F comparative], which MIC [2] is on record?
Answer: 1 µg/mL (≈ 2.23 µM)

Question: With `O=C(O)c1cc(Oc2ccc(C(F)(F)F)cc2Cl)ccc1[N+](=O)[O-]` [4E comparative] as the compound, how does the MIC [2] read?
Answer: 12.5 µg/mL (≈ 34.6 µM)

Question: What about the MIC [3] of the same compound?
Answer: > 50 µg/mL

Question: What does the source list for `Oc1cccc(Oc2ccc(C(F)(F)F)cc2Cl)c1` [4A comparative]?
Answer: MIC [2]: 1.6 µg/mL (≈ 5.54 µM); MIC [3]: 3.1 µg/mL (≈ 10.7 µM)
